Assay results from patent publication US12509424B2, “Compound and composition as PDGF receptor kinase inhibitor” (NIPPON SHINYAKU CO., LTD., priority 2019, dated 2025).
Blank lines part the entries; values can stand above or below the molecule they belong to.

Columns and labels:
[1] = molecular target: PDGFR-β (Homo sapiens (Human), UniProt P09619); assay: PDGFR-β tyrosine kinase inhibitory action (HTRF KinEASE-TK); type: biochemical; conditions: PDGFR-β enzyme 1 ng/μL, 30° C. for 30 minutes; read-out: PDGF-β IC50
Description: (§1) 1. Preparation of Test Substance
This DMSO solution was diluted by 8 times with an assay buffer 1 (50 mM HEPES (pH 7.0), 0.02% NaN3, 0.01% Bovine Serum Albumin, 0.1 mM orthovanadate, 1 mM Dithiothreitol, 5 mM MgCl2, and 1 mM MnCl2) and further diluted by 5 times with an assay buffer 2 (50 mM HEPES (pH 7.0), 0.02% NaN3, 0.01% Bovine Serum Albumin, 0.1 mM orthovanadate, 1 mM Dithiothreitol, 5 mM MgCl2, 1 mM MnCl2, and 40 nM Supplemented Enzymatic Buffer (cisbio)).
2. Measurement of PDGFR-β Tyrosine Kinase Inhibitory Action
For the measurement, the HTRF KinEASE-TK kit from Cisbio Bioassays SAS was used. To a 384 well plate, the test substance solution was added at 4 μL each, then 2 μL of a PDGFR-β enzyme solution (final concentration of 1 ng/μL, Carna Biosciences, Inc.) and 4 μL of a substrate solution obtained by adding 0.6 μM ATP to TK substrate-3-biotin (cisbio) were added, and the solution was allowed to react at 30° C. for 30 minutes at a final concentration of the test substance being 0.01 to 10,000 nM.
Thereafter, 10 μL of a detection solution (cisbio) was added to each well and allowed to react at 30° C. for 1 hour. The fluorescence intensity was measured with a microplate reader (Spectra Max M5, Molecular device).
(§2) 3. Analysis of Measurement Results

[2] = system: pulmonary arterial smooth muscle cells; assay: Suppression of proliferation of pulmonary arterial smooth muscle cells (PDGF-BB stimulation, BrdU); type: cell-based; conditions: PASMC, 24 h; healthy human derived pulmonary arterial smooth muscle cells; human PDGF-BB 10 ng/mL stimulation; BrdU uptake after 1 day; test substance final concentration 3 to 10,000 nM; read-out: Human normal PASMC proliferation suppression (PDGF stimulation_IC50)
Description: as §1
Furthermore, it was diluted by 50 times with distilled water.
2. Measurement of Suppression Action Against Proliferation of Pulmonary Arterial Smooth Muscle Cells
The day after healthy human derived pulmonary arterial smooth muscle cells were seeded onto a 96 well plate using a smooth muscle cell proliferation medium, the proliferation medium was replaced with a 0.1% FBS medium, and the cells were cultured for an additional day. A test substance solution was diluted by 10 times with a medium containing BrdU and human PDGF-BB (final concentration of 10 ng/mL, Sigma-Aldrich) and added to cells in equal amounts so as to reach a final concentration of 3 to 10,000 nM. Also, to the human PDGF-BB negative control, BrdU and 0.1% DMSO solution were added. After culturing for 1 day, the amount of BrdU taken up by the proliferating cells was measured using an anti-BrdU antibody.
as §2

Chain of PDGFR-β (P09619 33-1106): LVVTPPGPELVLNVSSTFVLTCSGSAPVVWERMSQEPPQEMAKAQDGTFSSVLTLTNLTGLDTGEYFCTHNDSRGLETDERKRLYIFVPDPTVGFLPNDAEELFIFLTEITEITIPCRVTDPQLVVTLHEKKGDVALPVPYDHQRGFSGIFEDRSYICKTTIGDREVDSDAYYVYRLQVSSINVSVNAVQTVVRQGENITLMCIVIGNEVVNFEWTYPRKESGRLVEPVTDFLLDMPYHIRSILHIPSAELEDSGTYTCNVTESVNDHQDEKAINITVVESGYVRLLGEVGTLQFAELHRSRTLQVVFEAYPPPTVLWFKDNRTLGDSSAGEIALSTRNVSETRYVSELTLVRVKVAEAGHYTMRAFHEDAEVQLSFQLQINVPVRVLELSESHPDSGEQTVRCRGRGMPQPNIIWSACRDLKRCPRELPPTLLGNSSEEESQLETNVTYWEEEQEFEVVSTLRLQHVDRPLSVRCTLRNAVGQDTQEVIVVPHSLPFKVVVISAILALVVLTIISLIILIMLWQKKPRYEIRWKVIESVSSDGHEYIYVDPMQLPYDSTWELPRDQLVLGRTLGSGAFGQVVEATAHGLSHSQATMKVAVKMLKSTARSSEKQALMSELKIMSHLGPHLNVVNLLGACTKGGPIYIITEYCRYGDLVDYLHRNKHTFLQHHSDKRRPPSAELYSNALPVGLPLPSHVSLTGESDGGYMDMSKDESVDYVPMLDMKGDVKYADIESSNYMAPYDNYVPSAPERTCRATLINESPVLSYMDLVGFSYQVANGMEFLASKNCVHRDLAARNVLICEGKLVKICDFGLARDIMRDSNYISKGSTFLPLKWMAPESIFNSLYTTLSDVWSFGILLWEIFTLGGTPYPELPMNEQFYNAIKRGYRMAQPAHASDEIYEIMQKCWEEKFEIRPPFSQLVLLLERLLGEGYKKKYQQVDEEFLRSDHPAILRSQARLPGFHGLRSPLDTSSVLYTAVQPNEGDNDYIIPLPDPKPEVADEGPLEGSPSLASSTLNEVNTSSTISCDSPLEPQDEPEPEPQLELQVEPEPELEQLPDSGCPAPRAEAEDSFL

SMILES: Cc1ccc(C(=O)N[C@H]2CCCC[C@@H]2O)cc1NCc1ccc(-n2cccn2)nc1 [Example 122, N-[(1S,2S)-2-hydroxycyclohexyl]-4-methyl-3-({[6-(1H-pyrazol-1-yl)pyridin-3-yl]methyl}amino)benzamide]
IC50 [1]: 150 nM
IC50 [2]: 300 nM

SMILES: Cc1ncc(C(=O)N[C@H]2CCCC[C@@H]2O)cc1/C=C(\F)c1cncc(N2CCOCC2)c1 [Example 188, 5-{(Z)-2-fluoro-2-[5-(morpholin-4-yl)pyridin-3-yl]ethenyl}-N-[(1S,2S)-2-hydroxycyclohexyl]-6-methylpyridine-3-carboxamide]
IC50 [1]: 68 nM
IC50 [2]: 60 nM

SMILES: Cc1ccc(C(=O)N[C@H]2CCCC[C@@H]2O)cc1/C=C(\F)c1ccc(NCCN(C)C)nc1 [Example 197, 3-[(Z)-2-(6-{[2-(dimethylamino)ethyl]amino}pyridin-3-yl)-2-fluoroethenyl]-N-[(1S,2S)-2-hydroxycyclohexyl]-4-methylbenzamide]
IC50 [1]: 120 nM
IC50 [2]: 110 nM

SMILES: Cc1ccc(C(=O)N[C@H]2CCCC[C@@H]2O)cc1NCc1ccc(NC2CCC2)nc1 [Example 130, 3-({[6-(cyclobutylamino)pyridin-3-yl]methyl}amino)-N-[(1S,2S)-2-hydroxycyclohexyl]-4-methylbenzamide]
IC50 [1]: 80 nM
IC50 [2]: 53 nM

SMILES: Cc1ccc(C(=O)N[C@H]2CCCC[C@@H]2O)cc1NCc1cnc(N[C@@H]2CCOC2)nc1 [Example 135, N-[(1S,2S)-2-hydroxycyclohexyl]-4-methyl-3-{[(2-{[(3R)-oxolan-3-yl]amino}pyrimidin-5-yl)methyl]amino}benzamide]
IC50 [1]: 120 nM
IC50 [2]: 390 nM

SMILES: Cc1ccc(C(=O)N[C@H]2CCCC[C@@H]2O)cc1NCc1cncc(-c2cn3ccnc3cn2)c1 [Example 111, N-[(1S,2S)-2-hydroxycyclohexyl]-3-({[5-(imidazo[1,2-a]pyrazin-6-yl)pyridin-3-yl]methyl}amino)-4-methylbenzamide]
IC50 [1]: 150 nM
IC50 [2]: 380 nM

SMILES: Cc1c(F)cc(C(=O)N[C@H]2CCCC[C@@H]2O)cc1NCc1cnc(N)nc1 [Example 143, 3-{[(2-aminopyrimidin-5-yl)methyl]amino}-5-fluoro-N-[(1S,2S)-2-hydroxycyclohexyl]-4-methylbenzamide]
IC50 [1]: 97 nM
IC50 [2]: 90 nM

SMILES: Cc1ccc(C(=O)N[C@H]2CCCC[C@@H]2O)cc1NCc1ccc(NC(=O)N(C)C2CC2)nc1 [Example 133, 3-{[(6-{[cyclopropyl(methyl)carbamoyl]amino}pyridin-3-yl)methyl]amino}-N-[(1S,2S)-2-hydroxycyclohexyl]-4-methylbenzamide]
IC50 [1]: 170 nM
IC50 [2]: 110 nM

SMILES: Cc1ccc(C(=O)N[C@H]2CCCC[C@@H]2O)cc1NCc1cnn2cccnc12 [Example 119, N-[(1S,2S)-2-hydroxycyclohexyl]-4-methyl-3-{[(pyrazolo[1,5-a]pyrimidin-3-yl)methyl]amino}benzamide]
IC50 [1]: 330 nM
IC50 [2]: 93 nM

SMILES: O=C(N[C@H]1CCCC[C@@H]1O)c1ccc(Cl)c(NC(=O)c2cnc(CC3CC3)s2)c1 [Example 55, N-(2-chloro-5-{[(1S,2S)-2-hydroxycyclohexyl]carbamoyl}phenyl)-2-(cyclopropylmethyl)-1,3-thiazole-5-carboxamide]
IC50 [1]: 83 nM
IC50 [2]: 69 nM

SMILES: COc1ccc(-c2ncc(CNc3cc(C(=O)N[C@H]4CCCC[C@@H]4O)ccc3C)cn2)cc1 [Example 128, N-[(1S,2S)-2-hydroxycyclohexyl]-3-({[2-(4-methoxyphenyl)pyrimidin-5-yl]methyl}amino)-4-methylbenzamide]
IC50 [1]: 180 nM
IC50 [2]: 79 nM

SMILES: COc1cncc(C(=O)Nc2cc(C(=O)N[C@H]3CCCC[C@@H]3O)ccc2C)c1 [Example 49, N-(5-{[(1S,2S)-2-hydroxycyclohexyl]carbamoyl}-2-methylphenyl)-5-methoxypyridine-3-carboxamide]
IC50 [1]: 120 nM
IC50 [2]: 250 nM

Molecules with a lower IC50 [1], results first:

IC50 [1]: 26 nM
SMILES: O=C(N[C@H]1CCCC[C@@H]1O)c1ccc(F)c(/C=C(\F)c2cncc(-c3ncccn3)c2)c1 [Example 178, 4-fluoro-3-{(Z)-2-fluoro-2-[5-(pyrimidin-2-yl)pyridin-3-yl]ethenyl}-N-[(1S,2S)-2-hydroxycyclohexyl]benzamide]
IC50 [2]: 44 nM

IC50 [1]: 17 nM
SMILES: Cc1ccc(C(=O)N[C@H]2CCCC[C@@H]2O)cc1NCc1ccc(NC(=O)Nc2cccnc2)nc1 [Example 129, N-[(1S,2S)-2-hydroxycyclohexyl]-4-methyl-3-{[(6-{[(pyridin-3-yl)carbamoyl]amino}pyridin-3-yl)methyl]amino}benzamide]
IC50 [2]: 20 nM

IC50 [1]: 52 nM
SMILES: Cc1ncc(C(=O)N[C@H]2CCCC[C@@H]2O)cc1/C=C(\F)c1ccc(NCC2CC2)nc1 [Example 199, 5-[(Z)-2-{6-[(cyclopropylmethyl)amino]pyridin-3-yl}-2-fluoroethenyl]-N-[(1S,2S)-2-hydroxycyclohexyl]-6-methylpyridine-3-carboxamide]
IC50 [2]: 70 nM

IC50 [1]: 26 nM
SMILES: O=C(N[C@H]1CCCC[C@@H]1O)c1ccc(F)c(/C=C(\F)c2cncc(NC3COC3)c2)c1 [Example 196, 4-fluoro-3-[(Z)-2-fluoro-2-{5-[(oxetan-3-yl)amino]pyridin-3-yl}ethenyl]-N-[(1S,2S)-2-hydroxycyclohexyl]benzamide]
IC50 [2]: 31 nM

IC50 [1]: 32 nM
SMILES: Cc1ccc(C(=O)N[C@H]2CCCC[C@@H]2O)cc1NCc1cnc(N[C@H]2CCOC2)nc1 [Example 136, N-[(1S,2S)-2-hydroxycyclohexyl]-4-methyl-3-{[(2-{[(3S)-oxolan-3-yl]amino}pyrimidin-5-yl)methyl]amino}benzamide]
IC50 [2]: 150 nM

IC50 [1]: 10 nM
SMILES: Cc1ccc(C(=O)N[C@H]2CCCC[C@@H]2O)cc1C#Cc1cncc(NCC2CC2)n1 [Example 72, 3-({6-[(cyclopropylmethyl)amino]pyrazin-2-yl}ethynyl)-N-[(1S,2S)-2-hydroxycyclohexyl]-4-methylbenzamide]
IC50 [2]: 70 nM

IC50 [1]: 29 nM
SMILES: Nc1ncc(/C(F)=C/c2cc(C(=O)N[C@H]3CCCC[C@@H]3O)ccc2F)cn1 [Example 192, 3-[(Z)-2-(2-aminopyrimidin-5-yl)-2-fluoroethenyl]-4-fluoro-N-[(1S,2S)-2-hydroxycyclohexyl]benzamide]
IC50 [2]: 24 nM

IC50 [1]: 1 nM
SMILES: Cc1ccc(C(=O)N[C@H]2CCCC[C@@H]2O)cc1/C=C(\F)c1cncc(NC2CCN(C)CC2)c1 [Example 193, 3-[(Z)-2-fluoro-2-{5-[(1-methylpiperidin-4-yl)amino]pyridin-3-yl}ethenyl]-N-[(1S,2S)-2-hydroxycyclohexyl]-4-methylbenzamide]
IC50 [2]: 18 nM

IC50 [1]: 35 nM
SMILES: Nc1ccc(/C(F)=C/c2cc(C(=O)N[C@H]3CCCC[C@@H]3O)ccc2F)cn1 [Example 191, 3-[(Z)-2-(6-aminopyridin-3-yl)-2-fluoroethenyl]-4-fluoro-N-[(1S,2S)-2-hydroxycyclohexyl]benzamide]
IC50 [2]: 29 nM

IC50 [1]: 16 nM
SMILES: Cc1ccc(C(=O)N[C@H]2c3ccccc3C[C@@H]2O)cc1/C=C(\F)c1cncc(CN2CCN(C)CC2)c1 [Example 200, 3-[(Z)-2-fluoro-2-{5-[(4-methylpiperazin-1-yl)methyl]pyridin-3-yl}ethenyl]-N-[(1S,2S)-2-hydroxy-2,3-dihydro-1H-inden-1-yl]-4-methylbenzamide]
IC50 [2]: 120 nM

IC50 [1]: 40 nM
SMILES: Cc1ccc(C(=O)N[C@H]2CCCC[C@@H]2O)cc1NC(=O)c1cncc(OCC2CC(F)(F)C2)c1 [Example 54, 5-[(3,3-difluorocyclobutyl)methoxy]-N-(5-{[(1S,2S)-2-hydroxycyclohexyl]carbamoyl}-2-methylphenyl)pyridine-3-carboxamide]
IC50 [2]: 340 nM

IC50 [1]: 41 nM
SMILES: Cc1ccc(C(=O)N[C@H]2CCCC[C@@H]2O)cc1NCc1ccc(NC(=O)C2CCOCC2)nc1 [Example 137, N-{5-[(5-{[(1S,2S)-2-hydroxycyclohexyl]carbamoyl}-2-methylanilino)methyl]pyridin-2-yl}oxane-4-carboxamide]
IC50 [2]: 60 nM

IC50 [1]: 33 nM
SMILES: Cc1ccc(C(=O)N[C@H]2CCCC[C@@H]2O)cc1/C=C(\F)c1cncc(CN2CCOCC2)c1 [Example 182, 3-[(Z)-2-fluoro-2-{5-[(morpholin-4-yl)methyl]pyridin-3-yl}ethenyl]-N-[(1S,2S)-2-hydroxycyclohexyl]-4-methylbenzamide]
IC50 [2]: 190 nM
